Experimental data as given in publication PMC10254852, “Design, Synthesis and Anticancer Evaluation of Nitroimidazole Radiosensitisers” (Molecules, 2023).
Like-named read-outs stand apart in the source and are kept apart here.

Key:
[1] = system: UT-SCC-74B tumours; assay: Tumour radiosensitisation: ex vivo clonogenic assay; format: in vivo, NIH-III mice
[2] = system: HCT116/54C tumours; assay: as above; format: in vivo, NIH-III mice
[3] = system: UT-SCC-74B cells; assay: In vitro cytotoxicity, 4 h exposure oxic/anoxic, 5-day regrowth, sulforhodamine B; format: cell-based, human; details: for IC50: Homo sapiens, 4 h exposure, mean ± SEM
[4] = system: HCT116/54C cells; assay: as above; format: cell-based, human; details: for IC50: Homo sapiens, 4 h exposure, mean ± SEM, n = 3–4
[5] = 2.2 mmol/kg i.v. 5 min prior to 10 Gy radiation, surviving fraction after radiation/surviving fraction after drug + radiation
[6] = 2.2 mmol/kg i.v. + 10 Gy, one-way ANOVA
[7] = drug alone 2.2 mmol/kg i.v., relative to untreated tumours
[8] = 2.2 mmol/kg i.v., 10 Gy, mechanism experiment (Figure 3)

## O=[N+]([O-])c1nccn1CS(=O)(=O)NCCN1CCOCC1 [Compound 34]
[1]; [5]
  Sensitisation Ratio: 13.8
[1]; [6]
  enhancement of tumour cell killing by radiotherapy (RAD vs drug + RAD): significantly enhanced tumour cell killing by radiotherapy
[1]; [7]
  single agent cell kill: 68.4 ± 1.2%
[2]; [5]
  Sensitisation Ratio: 14.9
[2]; [6]
  enhancement of tumour killing of radiotherapy (RAD vs drug + RAD): significantly enhanced the tumour killing of radiotherapy
[2]; [8]
  SR, drug given 5 min before radiation: 9.76
  SR, drug given 20 min after radiation: 1.49
[2]; [7]
  single agent cell kill: 62.3 ± 7.9%
[3]; anoxic, n = 3–4, read-out: IC50 Anoxic
  IC50: 0.51 ± 0.08 mM
[3]; oxic, n = 3–4, read-out: IC50 Oxic
  IC50: 12.6 ± 1.8 mM
[3]; IC50(oxic)/IC50(anoxic)
  HCR: 24.5
[4]; HCT116/54C, IC50(oxic)/IC50(anoxic)
  HCR: 38.8
[4]; HCT116/54C, anoxic, read-out: IC50 Anoxic
  IC50: 0.17 ± 0.01 mM
[4]; HCT116/54C, oxic, read-out: IC50 Oxic
  IC50: 6.4 ± 1 mM
[4]; range across the cell line panel
  HCR values in vitro: 23–38
